Reference: ChEMBL document CHEMBL1255537, “Design, synthesis and docking studies on phenoxy-3-piperazin-1-yl-propan-2-ol derivatives as protein tyrosine phosphatase 1B inhibitors” (2010)

Legend:
[1] = target: T1, Tyrosine-protein phosphatase non-receptor type 1 (Homo sapiens) (UniProt P18031); assay: Inhibition of PTP1B assessed as p-nitrophenolate ions release at 100 uM
T1 sequence (whole entry): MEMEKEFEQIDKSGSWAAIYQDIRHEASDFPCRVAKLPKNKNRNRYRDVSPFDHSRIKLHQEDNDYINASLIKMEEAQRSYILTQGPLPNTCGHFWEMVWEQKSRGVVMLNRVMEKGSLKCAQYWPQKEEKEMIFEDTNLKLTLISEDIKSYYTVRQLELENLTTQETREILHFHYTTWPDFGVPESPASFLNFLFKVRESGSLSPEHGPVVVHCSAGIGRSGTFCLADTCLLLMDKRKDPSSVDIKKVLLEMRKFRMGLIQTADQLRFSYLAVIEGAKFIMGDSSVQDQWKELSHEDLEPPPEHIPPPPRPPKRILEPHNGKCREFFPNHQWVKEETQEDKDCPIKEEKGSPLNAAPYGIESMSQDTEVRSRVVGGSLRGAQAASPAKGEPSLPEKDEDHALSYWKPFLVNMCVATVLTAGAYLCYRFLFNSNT

Rattus norvegicus [2] = assay: Antihyperglycemic activity in rat sucrose loaded model assessed as reduction of blood glucose level at 100 mg/kg, po; type: functional
Rattus norvegicus [3] = assay: Antihyperglycemic activity in rat streptozotocin-induced diabetic model assessed as reduction of blood glucose level at 100 mg/kg, po after 5 hrs; type: functional
Rattus norvegicus [4] = assay: Antihyperglycemic activity in rat streptozotocin-induced diabetic model assessed as reduction of blood glucose level at 100 mg/kg, po after 24 hrs; type: functional

`OC(COc1ccc(Cl)cc1)CN1CCN(c2ccc(Cl)c(Cl)c2)CC1` (stereo unspecified) gave an inhibition [1] of 24.6% and an inhibition in vivo at 100 mg/kg (Rattus norvegicus [2]) of 3.52%.

`N#Cc1ccc(OCC(O)CN2CCN(c3ccc(F)cc3)CC2)cc1` (stereo unspecified) showed an inhibition [1] of 3.6% and an inhibition in vivo at 100 mg/kg (Rattus norvegicus [2]) of 38.6%.

In the case of `COc1ccc(N2CCN(CC(O)COc3ccc(Cl)cc3)CC2)cc1` (stereo unspecified), the inhibition [1] is reported as 9.21% and the inhibition in vivo at 100 mg/kg (Rattus norvegicus [2]) is reported as 4.6%.

For `OC(COc1ccc(Cl)cc1)CN1CCN(C/C=C/c2ccccc2)CC1` (stereo unspecified), the inhibition [1] was 7.63% and the inhibition in vivo at 100 mg/kg (Rattus norvegicus [2]) was 14.6%.

`O=[N+]([O-])c1ccc(N2CCN(CC(O)COc3ccc(F)cc3)CC2)cc1` (stereo unspecified) showed an inhibition [1] of 24%, an inhibition in vivo at 100 mg/kg (Rattus norvegicus [2]) of 40.2% and an inhibition in vivo at 100 mg/kg (Rattus norvegicus [3]) of 14.4%. For the same molecule, the inhibition in vivo at 100 mg/kg (Rattus norvegicus [4]) was 10.8%.

With `N#Cc1ccc(OCC(O)CN2CCN(Cc3ccc4c(c3)OCO4)CC2)cc1` (stereo unspecified) the inhibition [1] was 0.5% and the inhibition in vivo at 100 mg/kg (Rattus norvegicus [2]) was 14%.

`N#Cc1ccc(OCC(O)CN2CCN(Cc3ccccc3)CC2)cc1` (stereo unspecified) gave an inhibition [1] of 5.1%, an inhibition in vivo at 100 mg/kg (Rattus norvegicus [2]) of 39.6% and an inhibition in vivo at 100 mg/kg (Rattus norvegicus [3]) of 25.3%. It also gave an inhibition in vivo at 100 mg/kg (Rattus norvegicus [4]) of 14.7%.

In the case of `N#Cc1ccc(OCC(O)CN2CCN(c3cccc(C(F)(F)F)c3)CC2)cc1` (stereo unspecified), the inhibition [1] is reported as 18.8% and the inhibition in vivo at 100 mg/kg (Rattus norvegicus [2]) is reported as 49.7%.

`N#Cc1ccc(OCC(O)CN2CCN(c3cccc(Cl)c3)CC2)cc1` (stereo unspecified) showed an inhibition [1] of 1.5% and an inhibition in vivo at 100 mg/kg (Rattus norvegicus [2]) of 16.5%.

`CN1CCN(CC(O)COc2ccc(Cl)cc2)CC1` (stereo unspecified) showed an inhibition [1] of 2.4% and an inhibition in vivo at 100 mg/kg (Rattus norvegicus [2]) of 2.61%.

With `Cc1ccc(N2CCN(CC(O)COc3ccc(C#N)cc3)CC2C)cc1` (stereo unspecified) the inhibition [1] was 31.6%, the inhibition in vivo at 100 mg/kg (Rattus norvegicus [2]) was 40.3% and the inhibition in vivo at 100 mg/kg (Rattus norvegicus [3]) was 26.8%. The inhibition in vivo at 100 mg/kg (Rattus norvegicus [4]) was 32%.

`CN(C)C(=N)NC(=N)N` [METFORMIN] was tested, and the inhibition in vivo at 100 mg/kg (Rattus norvegicus [2]) was 42%, the inhibition in vivo at 100 mg/kg (Rattus norvegicus [3]) was 28% and the inhibition in vivo at 100 mg/kg (Rattus norvegicus [4]) was 29.8%.

`O=[N+]([O-])c1ccc(N2CCN(CC(O)COc3ccc(Cl)cc3)CC2)cc1` (stereo unspecified) was tested, and the inhibition [1] was 35.9%, the inhibition in vivo at 100 mg/kg (Rattus norvegicus [2]) was 24.8% and the inhibition in vivo at 100 mg/kg (Rattus norvegicus [3]) was 18.9%. The inhibition in vivo at 100 mg/kg (Rattus norvegicus [4]) was 13.6%.

For `N#Cc1ccc(OCC(O)CN2CCN(c3ccccn3)CC2)cc1` (stereo unspecified), the inhibition [1] was 1.8% and the inhibition in vivo at 100 mg/kg (Rattus norvegicus [2]) was 39.6%.

`COc1ccccc1N1CCN(CC(O)COc2ccc(C#N)cc2)CC1` (stereo unspecified) was tested, and the inhibition [1] was 2.6% and the inhibition in vivo at 100 mg/kg (Rattus norvegicus [2]) was 33.5%.

With `N#Cc1ccc(OCC(O)CN2CCN(c3ccccc3)CC2)cc1` (stereo unspecified) the inhibition [1] was 4.6% and the inhibition in vivo at 100 mg/kg (Rattus norvegicus [2]) was 56.7%.
